# Assay results taken from the supplement of paper PMC11208160.
# Assay: recombinant UMI read abundance after kanamycin selection (control-corrected) (log10(CPM+1)); higher = more efficient recombination; extreme values may be limits of the assay; sequences stand for … in AGTGCAGAGAAAATCGGCCAGTTTTCTCTGCCTGCAGTCCGCATGCCGTGGGACCCCTTGGGTTCTAACCTGTTGCCTAGATTTATGCAGCGGACTGCCTTTCTCCCAAAGTGATAAACCGG…AGGTTGGTTTCACT; site = the 11-nt donor
# Method: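 Pooled E. coli donor-specificity screen for the IS621 bridge recombinase. Each library member carries a reprogrammed 11-nt donor and a full-length LE bridge RNA expressed in cis from the natural promoter, with a paired donor-binding loop (8-nt LDG + 4-nt RDG) and a target-binding loop fixed to T5. It is co-electroporated with a T5 target plasmid; recombinase is induced with 0.07 mM IPTG and recombinants are selected on kanamycin. UMIs are counted as CPM, averaged over two biological replicates and corrected by the unselected control. Molecule = full bridge RNA written as DNA, built from the T5 scaffold: LDG = donor specificity nt 1-8, RDG = reverse complement of nt 8-11.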
# 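Note: IS621 bridge recombinase in Escherichia coli cells against a fixed T5 target plasmid.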
row,Sequence,recombinant UMI read abundance (log10)
1,CGATCATCATGGACCGGTTTTCCCGGTAATCCGTATTTGCA (site CGATCATCTAG),0
2,AACCGGCCATGGACCGGTTTTCCCGGTAATCCGTATTTGAT (site AACCGACCTAT),0
3,CCTCAAGCATGGACCGGTTTTCCCGGTAATCCGTATTTGAT (site CCTTAAGCTAT),0
4,GCGCTCACATGGACCGGTTTTCCCGGTAATCCGTATTTGCC (site GCGCTCACTGG),2.47
5,CAATTGGCATGGACCGGTTTTCCCGGTAATCCGTATTTGGA (site CAGTTGGCTTC),0.585
6,ATGTTCCCATGGACCGGTTTTCCCGGTAATCCGTATTTGTG (site ACGTTCCCTCA),0.0446
7,TAGCCTTCATGGACCGGTTTTCCCGGTAATCCGTATTTGGC (site TAGCCTTCTGC),0
8,TTGCGGGCATGGACCGGTTTTCCCGGTAATCCGTATTTGGA (site TTGCGGGCTTC),0.00996
9,GCCACTGCATGGACCGGTTTTCCCGGTAATCCGTATTTGCC (site GCAACTGCTGG),1.19
10,ATATGCACATGGACCGGTTTTCCCGGTAATCCGTATTTGTA (site CTATGCACTTA),0.913
11,TCTTCAACATGGACCGGTTTTCCCGGTAATCCGTATTTGTG (site TCTTCAACTCA),0.0171
12,GGTTAGGCATGGACCGGTTTTCCCGGTAATCCGTATTTGAG (site GGTTAGGCTCT),0.952
13,CAAGCTCCATGGACCGGTTTTCCCGGTAATCCGTATTTGTG (site CAAGCACCTCA),0.0218
14,AACCCACCATGGACCGGTTTTCCCGGTAATCCGTATTTGGA (site AACCCACCTTC),0.0204
15,CCGTTAGCATGGACCGGTTTTCCCGGTAATCCGTATTTGTG (site CGGTTAGCTCA),0.00954
16,CCAGGTGCATGGACCGGTTTTCCCGGTAATCCGTATTTGAT (site CGAGGTGCTAT),0.0036
17,GCGAAAACATGGACCGGTTTTCCCGGTAATCCGTATTTGCT (site GCGAAAGCTAG),0
18,GTTATAACATGGACCGGTTTTCCCGGTAATCCGTATTTGGC (site GTTACAACTGC),0
19,AGAACGGCATGGACCGGTTTTCCCGGTAATCCGTATTTGCT (site AGAAAGGCTAG),1.08
20,ACAAGAACATGGACCGGTTTTCCCGGTAATCCGTATTTGTC (site ACAAGAACTGA),1.75
21,CGAGGACCATGGACCGGTTTTCCCGGTAATCCGTATTTGGT (site CGAGGACCTGC),0
22,GTAATGGCATGGACCGGTTTTCCCGGTAATCCGTATTTGAA (site GTAATGGCTTT),2.26
23,CAACTAACATGGACCGGTTTTCCCGGTAATCCGTATTTGGA (site CGACTAACTTC),0.548
24,CGTTTGACATGGACCGGTTTTCCCGGTAATCCGTATTTGAG (site CGTTCGACTCT),0

row,Sequence,recombinant UMI read abundance (log10)
1,AGGAGCACATGGACCGGTTTTCCCGGTAATCCGTATTTGCA (site AGGAGCACTTG),2.37
2,CTCCCTACATGGACCGGTTTTCCCGGTAATCCGTATTTGAG (site CTCTCTACTCT),0.00795
3,CGTGGTACATGGACCGGTTTTCCCGGTAATCCGTATTTGTT (site CGTGGTACTAA),1.25
4,CGAGAACCATGGACCGGTTTTCCCGGTAATCCGTATTTGAT (site CGAGAACCTAT),0
5,CTGTGTGCATGGACCGGTTTTCCCGGTAATCCGTATTTGGT (site CTGTGTGCTAC),1.44
6,AGGAAGACATGGACCGGTTTTCCCGGTAATCCGTATTTGCA (site ATGAAGACTTG),1.43
7,CACGCCCCATGGACCGGTTTTCCCGGTAATCCGTATTTGTT (site CACGACCCTAA),0.0224
8,GTAGGTACATGGACCGGTTTTCCCGGTAATCCGTATTTGAC (site GTAGGTACTGC),1.5
9,CGTTTCGCATGGACCGGTTTTCCCGGTAATCCGTATTTGCT (site CGTTTAGCTAG),0
10,CAGTCGACATGGACCGGTTTTCCCGGTAATCCGTATTTGGA (site CAGTCGACTGC),0.00544
11,CACTTGTCATGGACCGGTTTTCCCGGTAATCCGTATTTGGA (site CACTTGACTTC),0.0147
12,CCGTTAGCATGGACCGGTTTTCCCGGTAATCCGTATTTGTG (site CCGTTCGCTCA),0
13,CCCCACACATGGACCGGTTTTCCCGGTAATCCGTATTTGTG (site CCCCACACTTA),0.0257
14,ACGAGAACATGGACCGGTTTTCCCGGTAATCCGTATTTGAG (site ACTAGAACTCT),0.873
15,GAGAAAACATGGACCGGTTTTCCCGGTAATCCGTATTTGCT (site GTGAAAACTAG),0
16,TACTTAACATGGACCGGTTTTCCCGGTAATCCGTATTTGCT (site TACTTAACTAG),0.345
17,AGGAAGACATGGACCGGTTTTCCCGGTAATCCGTATTTGCA (site AGTAAGACTTT),0.006
18,AGGCAGACATGGACCGGTTTTCCCGGTAATCCGTATTTGCA (site AGGAAGACTTG),0.346
19,GTGGGCGCATGGACCGGTTTTCCCGGTAATCCGTATTTGAC (site GTGGGCGCTGT),2.43
20,CTCCCTACATGGACCGGTTTTCCCGGTAATCCGTATTTGAA (site CTCCCTACTGT),0
21,TCATACTCATGGACCGGTTTTCCCGGTAATCCGTATTTGTA (site TCATACTCTTT),0.299
22,CAGTCGACATGGACCGGTTTTCCCGGTAATCCGTATTTGGG (site GAGTCGACTCC),0.0417
23,GCGAATACATGGACCGGTTTTCCCGGTAATCCGTATTTGCT (site GCGAACACTAG),0
24,CTCGGGCCATGGACCGGTTTTCCCGGTAATCCGTATTTGAG (site CTCGGGCCTCT),0

row,Sequence,recombinant UMI read abundance (log10)
1,GCGAAAACATGGACCGGTTTTCCCGGTAATCCGTATTTGCT (site GCGAGAACTAG),0
2,GGTTGCCCATGGACCGGTTTTCCCGGTAATCCGTATTTGAT (site GTTTGCCCTAT),0.0119
3,CTGGACACATGGACCGGTTTTCCCGGTAATCCGTATTTGAG (site CTGGACACTCT),1.47
4,AGAGTATCATGGACCGGTTTTCCCGGTAATCCGTATTTGCC (site AGAGTATCTGG),2.98
5,GTTCGTACATGGACCGGTTTTCCCGGTAATCCGTATTTGAC (site GTTCGTACTGT),1.54
6,AGCCGTCCATGGACCGGTTTTCCCGGTAATCCGTATTTGAT (site ATCCGTCCTAT),0.0112
7,GTTAGATCATGGACCGGTTTTCCCGGTAATCCGTATTTGGC (site GTTAGACCTGC),0
8,AGTGGAACATGGACCGGTTTTCCCGGTAATCCGTATTTGTT (site GGTGGAACTAA),0.00617
9,CCCATATCATGGACCGGTTTTCCCGGTAATCCGTATTTGTT (site CCCATATCTTA),0
10,CTAGTATCATGGACCGGTTTTCCCGGTAATCCGTATTTGTC (site CTAGTATCTGC),3.17
11,AATTTTGCATGGACCGGTTTTCCCGGTAATCCGTATTTGGA (site AATTGTGCTTC),0.154
12,GGATGGACATGGACCGGTTTTCCCGGTAATCCGTATTTGCC (site GGATAGACTGG),2.17
13,ATGAGGCCATGGACCGGTTTTCCCGGTAATCCGTATTTGAC (site ATCAGGCCTGT),0
14,AGGAACACATGGACCGGTTTTCCCGGTAATCCGTATTTGAA (site AGGAACACTTT),2.29
15,GCGACGCCATGGACCGGTTTTCCCGGTAATCCGTATTTGGG (site GCGACGCCTCC),0.00484
16,CCGTTAGCATGGACCGGTTTTCCCGGTAATCCGTATTTGTG (site CCGTTAGCTCT),0
17,ACTTGCTCATGGACCGGTTTTCCCGGTAATCCGTATTTGTT (site ACTTGCTCTAA),0.824
18,ACTAGACCATGGACCGGTTTTCCCGGTAATCCGTATTTGAG (site ACTAGAGCTCT),0.0203
19,ACACTTACATGGACCGGTTTTCCCGGTAATCCGTATTTGGG (site ACACTTACTCC),0.464
20,TTTGAATCATGGACCGGTTTTCCCGGTAATCCGTATTTGAC (site TTTGAATCTGT),0
21,CGATCGACATGGACCGGTTTTCCCGGTAATCCGTATTTGTT (site CGATCGACTTA),0.271
22,CGAGGACCATGGACCGGTTTTCCCGGTAATCCGTATTTGGG (site CGAGGATCTCC),0.156
23,GACCGCTCATGGACCGGTTTTCCCGGTAATCCGTATTTGGC (site GACCGCTCTGC),2.43
24,TCAGCGACATGGACCGGTTTTCCCGGTAATCCGTATTTGCG (site TCAGTGACTCG),0.00864
